In one assay the target is T1, porcine DPP-IV (Sus scrofa, UniProt P22411).
T1 construct: purchased Sigma Chemical Co. (St. Louis, MO, USA)
The experiment in a line: DPP-IV inhibitory activity assay (Gly-Pro-p-nitroanilide substrate, absorbance 405 nm). In kind it is biochemical. The note with it: chemically synthesized peptides; diprotin A positive control. The text has this:
Papain (from papaya, 8 × 10^5 units/g of protein), trypsin (from porcine pancreas, 2.5 × 10^5 units/g of protein), pepsin (from porcine gastric mucosa, 1 × 10^4 units/g of protein), flavourzyme (from […], 2 × 10^4 units/g of protein), and alcalase (from Bacillus licheniformis, 2 × 10^5 units/g of protein) were purchased from […] Biological Tech., Ltd. (Nanjing, China). […] (St. Louis, MO, USA). Mass spectrometry (MS)-grade water, acetonitrile (ACN), and trifluoroacetic acid (TFA) were purchased from Tedia Company Inc. (Fairfield, CT, USA). All other reagents were obtained from Sigma. All reagents were of analytical grade. DPP-IV inhibitory activity was measured as previously described by Zhang with minor modifications. Briefly, a 25 μL sample (diluted in 100 mM Tris-HCl buffer at pH 8.0) was mixed with 25 μL Gly-Pro-p-nitroanilide (1.6 mM) and pre-incubated at 37 °C for 10 min. […] The reaction was terminated by adding 100 μL of 1 M sodium acetate buffer at pH 4.0. The absorbance of each reaction was measured at 405 nm. Diprotin A ([…]) was used as a reference inhibitor. The percent DPP-IV inhibition was calculated according to the following equation: […] The DPP-IV inhibitory activity of these chemically synthesized peptides was determined as described in Section 3.3.

The target in another assay is T2, DPP-IV enzyme (Sus scrofa, UniProt P22411).
T2 construct: purchased Sigma Chemical Co. (St. Louis, MO, USA)
The experiment in a line: Lineweaver-Burk double-reciprocal plot, mode of DPP-IV inhibition. In kind it is biochemical, porcine. The note with it: Figure 7. The method, then: Figure 7 Lineweaver—Burk double-reciprocal plot for DPP-IV activity in the absence and presence of four peptides at different inhibitory concentrations. […] (0, 150, and 300 μM); (C) peptide LAPSTM (0, 150, and 300 μM); (D) peptide […] (0, 250, and 500 μM); and (E) peptide FLMESH (0, 400, and 800 μM).
DPP-IV inhibitory activity was measured as previously described by Zhang with minor modifications. Briefly, a 25 μL sample (diluted in 100 mM Tris-HCl buffer at pH 8.0) was mixed with 25 μL Gly-Pro-p-nitroanilide (1.6 mM) and pre-incubated at 37 °C for 10 min. Subsequently, 50 μL of DPP-IV (8 U/L) was added and the mixture was incubated at 37 °C for 1 h. The reaction was terminated by adding 100 μL of 1 M sodium acetate buffer at pH 4.0. The absorbance of each reaction was measured at 405 nm. […] The percent DPP-IV inhibition was calculated according to the following equation: DPP-IV inhibition(%)=[1−Asample/Ablank]×100%

In assay [1] the test system is DPP-IV. On the set-up: method as in PMID 25577052. The note with it: read-out: DPP-IV inhibitory activity IC50; cited from earlier work.
The subject of assay [2] is DPP-IV. Set-up: method as in PMID 26758401. The note with it: heptapeptide derived from silver carp actin; cited from earlier work.

The values that follow come from paper PMC6151561, “Rapid Identification of Dipeptidyl Peptidase-IV (DPP-IV) Inhibitory Peptides from Ruditapes philippinarum Hydrolysate” (Molecules : A Journal of Synthetic Chemistry and Natural …, 2017).

No end group written: not given here.

The term IC50 denotes the midpoint of a concentration-inhibition curve.

T2 sequence (P22411 whole entry): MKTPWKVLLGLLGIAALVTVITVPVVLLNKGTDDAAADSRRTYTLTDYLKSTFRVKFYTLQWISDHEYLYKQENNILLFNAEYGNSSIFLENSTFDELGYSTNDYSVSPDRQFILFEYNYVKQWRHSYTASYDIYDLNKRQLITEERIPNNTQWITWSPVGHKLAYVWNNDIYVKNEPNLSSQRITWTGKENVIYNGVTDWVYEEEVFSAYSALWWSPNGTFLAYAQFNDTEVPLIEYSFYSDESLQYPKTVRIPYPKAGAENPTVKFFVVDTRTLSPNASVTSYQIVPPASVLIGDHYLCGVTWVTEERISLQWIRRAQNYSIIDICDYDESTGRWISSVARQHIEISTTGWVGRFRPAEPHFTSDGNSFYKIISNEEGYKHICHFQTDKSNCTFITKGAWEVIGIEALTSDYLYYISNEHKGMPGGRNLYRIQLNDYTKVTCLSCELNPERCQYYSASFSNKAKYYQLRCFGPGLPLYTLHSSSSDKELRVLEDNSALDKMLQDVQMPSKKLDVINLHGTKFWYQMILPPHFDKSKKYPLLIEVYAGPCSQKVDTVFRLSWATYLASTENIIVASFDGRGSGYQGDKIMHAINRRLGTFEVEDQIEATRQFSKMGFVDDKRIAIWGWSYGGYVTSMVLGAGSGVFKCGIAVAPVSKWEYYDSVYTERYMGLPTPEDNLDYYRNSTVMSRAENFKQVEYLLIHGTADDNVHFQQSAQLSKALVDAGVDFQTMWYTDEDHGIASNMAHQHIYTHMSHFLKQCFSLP
T1 sequence (P22411 whole entry): as above

With LAPSTM [LAPSTM], at porcine DPP-IV, the IC50 is 141 µM. For the compound FAGDDAPRA [FAGDDAPRA], at DPP-IV enzyme, the “mode of inhibition of DPP-IV enzyme” value is reported as “competitive/non-competitive mixed-type inhibition mode”. Moreover, at porcine DPP-IV, the IC50 came out at 393 µM.

On to FLMESH [FLMESH], for which, on DPP-IV enzyme, the “mode of inhibition of DPP-IV enzyme” value is given as “competitive/non-competitive mixed-type inhibition mode”. The IC50 at porcine DPP-IV is > 500 µM. Take Leu-Ala: the IC50 in the assay on DPP-IV [1] is 91 µM. For the compound FAGDDAPR [FAGDDAPR], the “mode of inhibition of DPP-IV enzyme” value at DPP-IV enzyme is listed as “competitive/non-competitive mixed-type inhibition mode”. Also, the IC50 on porcine DPP-IV was 169 µM. Take `CC[C@H](C)[C@H](N)C(=O)N1CCC[C@H]1C(=O)N[C@H](C(=O)O)[C@@H](C)CC` [diprotin A, Ile-Pro-Ile, reference compound]: the “mode of inhibition of DPP-IV enzyme” value at DPP-IV enzyme was “competitive inhibitor”. In the case of “ALAPSTM [heptapeptide derived from silver carp actin, from the literature]”, the DPP-IV inhibitory effect entry in the assay on DPP-IV [2] is “weak DPP-IV inhibitory effect”.
